Read-outs that look alike come from different tables or passages of the source.
How the values were obtained:
Haemonchus contortus [1] = assay: Method A: Haemonchus contortus L1 larvae, microtitre plate screen; details: 96 h, read-out: motility inhibition
Cooperia oncophora = assay: Method C: Cooperia oncophora L1 larvae in vitro; details: 96 h, read-out: inhibition of motility
[2] = test system: microfilaria of Dirofilaria immitis; assay: Method F: microfilaria of Dirofilaria immitis, survival at 24 hours
[3] = Method G: permeability in the Caco-2/TC7 in vitro model; details: human, Caco-2, pH 6.5
Haemonchus contortus [4] = assay: Method D: Haemonchus contortus in vivo in Mongolian jirds; set-up: species or system Mongolian jirds (Meriones unguiculatus); details: po, 72 h, read-out: reduction in nematode infestation
[5] = test system: anthelmintic-resistant isolate of Haemonchus contortus; assay: Method B: anthelmintic-resistant (benzimidazole-resistant) isolate of Haemonchus contortus, conditions of method A; details: H. contortus isolate functionally resistant against benzimidazoles
[6] = survival of microfilaria at 24 hours

Row | Compound | inhibition at 5 µg/mL (Haemonchus contortus [1]) [%] | inhibition at 5 µg/mL (Cooperia oncophora) [%] | EC50 [2, 6] [µg/mL] | Papp A→B at 20 μM [3] [×10⁻⁶ cm/s] | inhibition in vivo at 30 mg/kg (Haemonchus contortus [4]) [%] | inhibition in vivo at 30 mg/kg (Haemonchus contortus [4]; in Meriones unguiculatus) [%] | fold resistance of the isolate [5] [fold] | EC50 [2] [µg/mL]
1 | O=C(CO[C@H]1CC[C@H](Nc2ccc([N+](=O)[O-])c(C(F)(F)F)c2)CC1)N1CCN(Cc2ccc3cc(F)ccc3c2)CC1 [Compound 297, 2-[(4-[[4-nitro-3-(trifluoromethyl)phenyl]amino]cyclohexyl)-oxy]1-[4-(6-fluoronaphthalen-2-ylmethyl)piperazin-1-yl]ethan-1-one] | ≥ 90 | ≥ 90 | < 1 | 5.7 | – | – | – | –
2 | O=C(CO[C@H]1CC[C@H](Nc2ccc([N+](=O)[O-])c(C(F)(F)F)c2)CC1)N1CCN(Cc2cc3cc(F)ccc3s2)CC1 [Compound 234, 1-[4-[(5-fluoro-1-benzothiophen-2-yl)methyl]piperazin-1-yl]-2-[[4-[[4-nitro-3-(trifluorometh-yl)phenyl]amino]cyclohexyl]oxy]ethan-1-one] | ≥ 90 | ≥ 90 | < 0.1 | 4 | – | – | – | –
3 | O=C(CO[C@H]1CC[C@H](Nc2ccc([N+](=O)[O-])c(C(F)(F)F)c2)CC1)N1CCN(c2ccc3cc(C(F)(F)F)ccc3n2)CC1 [Compound 89, 2-[(4-[[4-nitro-3-(trifluoromethyl)phenyl]amino]cyclohexyl)oxy]-1-[4-[6-(trifluoromethyl)quinolin-2-yl]piperazin-1-yl]ethan-1-one] | ≥ 90 | ≥ 90 | < 5 | – | > 90 | – | – | –
4 | CC(c1cc2cc(F)ccc2o1)N1CCN(C(=O)CO[C@H]2CC[C@H](Nc3ccc([N+](=O)[O-])c(C(F)(F)F)c3)CC2)CC1 (some centres unmarked) [Compound 304, 2-[(4-[[4-nitro-3-(trifluoromethyl)phenyl]amino]cyclohexyl)-oxy]1-[4-[1-(5-fluorobenzofuran-2-yl)ethyl]piperazin-1-yl]ethan-1-one] | ≥ 90 | ≥ 90 | < 5 | 9 | – | – | – | –
5 | N#Cc1ccc(N[C@H]2CC[C@H](OCC(=O)N3CCN(c4ccc5cc(Cl)ccc5c4)CC3)CC2)cc1C(F)(F)F [Compound 278] | ≥ 90 | ≥ 90 | < 1 | – | – | 70 to 90 | – | –
6 | O=C(CO[C@H]1CC[C@H](Nc2ccc([N+](=O)[O-])c(C(F)(F)F)c2)CC1)N1CCN(CC2Cc3cc(C(F)(F)F)ccc3O2)CC1 (some centres unmarked) [Compound 78, 2-[(4-[[4-nitro-3-(trifluoromethyl)phenyl]amino]cyclohexyl)oxy]-1-(4-[[5-(trifluoromethyl)-2,3-dihydro-1-benzofuran-2-yl]methyl]piperazin-1-yl)ethan-1-one] | ≥ 90 | ≥ 90 | < 5 | – | > 90 | – | – | –
7 | CN(c1ccc([N+](=O)[O-])c(C(F)(F)F)c1)[C@H]1CC[C@H](OCC(=O)N2CCN(CC3Cc4cc(F)ccc4O3)CC2)CC1 (some centres unmarked) [Compound 261, 1-[4-(5-fluoro-2,3-dihydro-benzofuran-2-ylmethyl)-piperazin-1-yl]-2-{4-[methyl-(4-nitro-3-trifluoromethyl-phenyl)-amino]-cyclohexyloxy}-ethanone] | ≥ 90 | ≥ 90 | < 0.1 | 8.2 | > 90 | – | – | –
8 | O=C(CO[C@H]1CC[C@H](Nc2ccc([N+](=O)[O-])c(C(F)(F)F)c2)CC1)N1CCN(Cc2cc3cc(C(F)(F)F)ccc3o2)CC1 [Compound 180, 2-[(4-[[4-nitro-3-(trifluoromethyl)phenyl]amino]cyclohexyl)oxy]-1-(4-[[5-(trifluoromethyl)-1-benzofuran-2-yl]methyl]piperazin-1-yl)ethan-1-one] | ≥ 90 | ≥ 90 | < 1 | – | > 90 | – | – | –
9 | O=C(CO[C@H]1CC[C@H](Nc2ccc([N+](=O)[O-])c(C(F)(F)F)c2)CC1)N1CCN(CC2Cc3cc(F)ccc3O2)CC1 (some centres unmarked) [Compound 77] | ≥ 90 | ≥ 90 | < 5 | – | > 90 | – | – | –
10 | N#Cc1ccc(N[C@H]2CC[C@H](OCC(=O)N3CCN(c4ccc5cc(Cl)ccc5n4)CC3)CC2)cc1C(F)(F)F [Compound 272, 2-[(4-[[4-cyano-3-(trifluoromethyl)phenyl]amino]cyclohexyl)oxy]-1-[4-(6-chloroquinolin-2-yl)piperazin-1-yl]ethan-1-one] | ≥ 90 | ≥ 90 | < 1 | – | 70 to 90 | – | – | –
11 | O=C(CO[C@H]1CC[C@H](Nc2ccc([N+](=O)[O-])c(C(F)(F)F)c2)CC1)N1CCN(Cc2nc3cc(F)ccc3s2)CC1 [Compound 235, 1-(4-((5-fluorobenzo[d]thiazol-2-yl)methyl)piperazin-1-yl)-2-(-4-(4-nitro-3-(trifluoromethyl)phenylamino)cyclohexyloxy)ethanone] | ≥ 90 | ≥ 90 | < 1 | 13.8 | 70 to 90 | – | – | –
12 | c1ccc2[nH]c(-c3cscn3)nc2c1 [thiabendazole] | – | – | – | – | – | – | 127 | –
13 | O=C(CO[C@H]1CC[C@H](Nc2ccc([N+](=O)[O-])c(C(F)(F)F)c2)CC1)N1CCN(Cc2cc3cc(Cl)ccc3o2)CC1 [Compound 178, 1-[4-[(5-chloro-1-benzofuran-2-yl)methyl]piperazin-1-yl]-2-[(4-[[4-nitro-3-(trifluoromethyl)phenyl]amino]cyclohexyl)oxy]ethan-1-one] | ≥ 90 | ≥ 90 | < 1 | 4.9 | – | – | – | –
14 | O=C(CO[C@H]1CC[C@H](Nc2ccc([N+](=O)[O-])c(C(F)(F)F)c2)CC1)N1CCN(Cc2nc3cc(C(F)(F)F)ccc3s2)CC1 [Compound 302, 2-[4-[4-nitro-3-(trifluoromethyl)anilino]cyclohexoxy]-1-[4-[[5-(trifluoromethyl)-1,3-benzothiazol-2-yl]methyl]piperazin-1-yl]ethanone] | ≥ 90 | ≥ 90 | < 0.1 | – | > 90 | – | – | –
15 | O=C(CO[C@H]1CC[C@H](Nc2ccc([N+](=O)[O-])c(C(F)(F)F)c2)CC1)N1CCN(Cc2cc3cc(F)c(F)cc3o2)CC1 [Compound 325, 2-[(4-[[4-nitro-3-(trifluoromethyl)phenyl]amino]cyclohexyl)-oxy]1-[4-(5,6-difluorobenzofuran-2-ylmethyl)piperazin-1-yl]ethan-1-one] | ≥ 90 | ≥ 90 | – | 9 | 70 to 90 | – | – | –
16 | N#Cc1ccc(N[C@H]2CC[C@H](OCC(=O)N3CCN(c4ccc5cc(C(F)(F)F)ccc5n4)CC3)CC2)cc1C(F)(F)F [Compound 273, 2-[(4-[[4-cyano-3-(trifluoromethyl)phenyl]amino]cyclohexyl)oxy]-1-[4-[6-(trifluoromethyl)quinolin-2-yl]piperazin-1-yl]ethan-1-one] | ≥ 90 | ≥ 90 | < 1 | – | > 90 | – | – | –
17 | O=C(CO[C@H]1CC[C@H](Nc2ccc([N+](=O)[O-])c(C(F)(F)F)c2)CC1)N1CCN(Cc2cnc3cc(C(F)(F)F)ccc3c2)CC1 [Compound 327, 2-[4-(4-nitro-3-trifluoromethyl-phenylamino)-cyclohexyloxy]-1-[4-(7-trifluoromethyl-quinolin-3-ylmethyl)-piperazin-1-yl]-ethanone] | ≥ 90 | – | – | 6.9 | 70 to 90 | – | – | –
18 | N#Cc1ccc(N[C@H]2CC[C@H](OCC(=O)N3CCN(Cc4nc5cc(C(F)(F)F)ccc5s4)CC3)CC2)cc1C(F)(F)F [Compound 301] | ≥ 90 | ≥ 90 | – | 9.9 | – | – | – | < 0.1
19 | O=C(CO[C@H]1CC[C@H](Nc2ccc([N+](=O)[O-])c(C(F)(F)F)c2)CC1)N1CCN(c2nc3cc(C(F)(F)F)ccc3s2)CC1 [Compound 342, 2-[4-(4-nitro-3-trifluoromethyl-phenylamino)-cyclohexyloxy]-1-[4-(5-trifluoromethyl-benzothiazol-2-yl)-piperazin-1-yl]-ethanone] | ≥ 90 | ≥ 90 | – | – | > 90 | – | – | –
20 | CN(c1ccc([N+](=O)[O-])c(C(F)(F)F)c1)[C@H]1CC[C@H](OCC(=O)N2CCN(c3ccc4cc(C(F)(F)F)ccc4n3)CC2)CC1 [Compound 245, 2-[[(1r,4r)-4-[methyl[4-nitro-3-(trifluoromethyl)phenyl]amino]cyclohexyl]oxy]-1-[4-[6-(trifluoromethyl)quinolin-2-yl]piperazin-1-yl]ethan-1-one] | ≥ 90 | ≥ 90 | – | – | > 90 | – | – | < 1
21 | CN(c1ccc(C#N)c(C(F)(F)F)c1)[C@H]1CC[C@H](OCC(=O)N2CCN(c3ccc4cc(C(F)(F)F)ccc4n3)CC2)CC1 [Compound 283, 2-[(4-[methyl[4-cyano-3-(trifluoromethyl)phenyl]amino]cyclohexyl)-oxy]1-[4-[6-(trifluoromethyl)quinolin-2-yl]-piperazin-1-yl]ethan-1-one] | ≥ 90 | ≥ 90 | – | – | > 90 | – | – | –

— patent publication US9249102B2 (priority 2012, dated 2016)
